Experimental data from patent publication US20100204203A1, “Chemical Compounds 637: Pyridopyrimidinediones as PDE4 Inhibitors” (priority 2007, published 2010).

Target: recombinant Human Phosphodiesterase B2 (PDE4B2) (Homo sapiens, UniProt Q07343)
Assay: Human Phosphodiesterase B2 Radiometric Assay (yttrium silicate SPA beads, [3H]cyclic AMP)
Format: biochemical
Conditions: recombinant human PDE4B2, radiometric SPA assay, 8 nM [3H]cyclic AMP; read-out: PDE4B2 pIC50 (converted)
How it was run: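 Read-out is scintillation proximity: yttrium silicate beads (with 18 mM ZnSO4, added to stop the reaction) bind 5′AMP formed from 8 nM [3H]cAMP over 20 min. Beforehand, compound and 0.1 mg/mL enzyme were preincubated 30 min at 30 °C in pH 7.5 HEPES buffer with MgCl2, EGTA and Brij 35; pIC50 values were curve-fitted.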

Sequence of recombinant Human Phosphodiesterase B2 (PDE4B2) (Q07343 1-564 isoform Q07343-2): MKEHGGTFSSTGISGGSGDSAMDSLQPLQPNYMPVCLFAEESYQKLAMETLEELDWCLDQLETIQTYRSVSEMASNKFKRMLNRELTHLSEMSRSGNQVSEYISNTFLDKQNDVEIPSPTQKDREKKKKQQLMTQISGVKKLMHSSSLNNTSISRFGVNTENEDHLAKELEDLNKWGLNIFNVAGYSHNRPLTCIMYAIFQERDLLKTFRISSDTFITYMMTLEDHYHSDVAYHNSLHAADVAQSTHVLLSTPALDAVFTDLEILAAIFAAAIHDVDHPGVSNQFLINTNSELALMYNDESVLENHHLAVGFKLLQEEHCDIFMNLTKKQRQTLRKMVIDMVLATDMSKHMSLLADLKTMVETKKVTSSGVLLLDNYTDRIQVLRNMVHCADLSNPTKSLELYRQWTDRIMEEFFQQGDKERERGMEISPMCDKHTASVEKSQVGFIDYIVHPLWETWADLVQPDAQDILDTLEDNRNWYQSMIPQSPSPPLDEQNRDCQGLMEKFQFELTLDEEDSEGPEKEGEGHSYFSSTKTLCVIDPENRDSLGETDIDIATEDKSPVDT

IC50 | Compound
25.1 pM | CC(C)(C)OC(=O)N1CCN(CC(=O)N[C@H]2CC[C@@H](n3c(=O)c4cc(F)cnc4n(-c4cccc(-c5ccccc5)c4)c3=O)CC2)CC1 [Example 105, tert-butyl 4-(2-{[cis-4-(1-biphenyl-3-yl-6-fluoro-2,4-dioxo-1,4-dihydropyrido[2,3-d]pyrimidin-3(2H)-yl)cyclohexyl]amino}-2-oxoethyl)piperazine-1-carboxylate]
3160 pM | O=C(CN1CCNCC1)N[C@H]1CC[C@@H](n2c(=O)c3cc(F)cnc3n(-c3cccc(-c4ccccc4)c3)c2=O)CC1 [Example 106, N-[cis-4-(1-biphenyl-3-yl-6-fluoro-2,4-dioxo-1,4-dihydropyrido[2,3-d]pyrimidin-3(2H)-yl)cyclohexyl]-2-piperazin-1-ylacetamide]
100000 pM | O=c1c2cc(F)cnc2n(-c2cccc(-c3ccccc3)c2)c(=O)n1[C@@H]1CCNC1 [Example 107, 1-biphenyl-3-yl-6-fluoro-3-[(3R)-pyrrolidin-3-yl]pyrido[2,3-d]pyrimidine-2,4(1H,3H)-dione]
7.94 pM | Cc1cc(C(=O)N[C@H]2CC[C@@H](n3c(=O)c4cc(F)cnc4n(-c4cccc(-c5ccc(CN6CCOCC6)cc5)c4)c3=O)CC2)nn1C [Example 108, N-{cis-4-[6-fluoro-1-[4′-(morpholin-4-ylmethyl)biphenyl-3-yl]-2,4-dioxo-1,4-dihydropyrido[2,3-d]pyrimidin-3(2H)-yl]cyclohexyl}-1,5-dimethyl-1H-pyrazole-3-carboxamide]
15.8 pM | O=C(N[C@H]1CC[C@@H](n2c(=O)c3cc(F)cnc3n(-c3cccc(-c4ccc(CN5CCOCC5)cc4)c3)c2=O)CC1)c1cn2c(n1)CCCC2 [Example 109, N-{cis-4-[6-fluoro-1-[4′-(morpholin-4-ylmethyl)biphenyl-3-yl]-2,4-dioxo-1,4-dihydropyrido[2,3-d]pyrimidin-3(2H)-yl]cyclohexyl}-5,6,7,8-tetrahydroimidazo[1,2-a]pyridine-2-carboxamide]
7.94 pM | CN(C)CCN(C)Cc1ccc(-c2cccc(-n3c(=O)n([C@H]4CC[C@@H](NC(=O)C5(N(C)C)CC5)CC4)c(=O)c4cc(F)cnc43)c2)cc1 [Example 110, 1-(dimethylamino)-N-{cis-4-[1-(4′-{[[2-(dimethylamino)ethyl](methyl)amino]methyl}biphenyl-3-yl)-6-fluoro-2,4-dioxo-1,4-dihydropyrido[2,3-d]pyrimidin-3(2H)-yl]cyclohexyl}cyclopropanecarboxamide]
12.6 pM | Cc1cccc2nc(C(=O)N[C@H]3CC[C@@H](n4c(=O)c5cc(F)cnc5n(-c5cccc(-c6ccc(CN7CCNCC7)cc6)c5)c4=O)CC3)cn12 [Example 111, N-{cis-4-[6-fluoro-2,4-dioxo-1-[4′-(piperazin-1-ylmethyl)biphenyl-3-yl]-1,4-dihydropyrido[2,3-d]pyrimidin-3(2H)-yl]cyclohexyl}-5-methylimidazo[1,2-a]pyridine-2-carboxamide]
50.1 pM | Cc1cc(C(=O)N[C@H]2CC[C@@H](n3c(=O)c4cc(F)cnc4n(-c4cccc(-c5ccc(CN6CCCCC6)cc5)c4)c3=O)CC2)nn1C [Example 112, N-{cis-4-[6-fluoro-2,4-dioxo-1-[4′-(piperidin-1-ylmethyl)biphenyl-3-yl]-1,4-dihydropyrido[2,3-d]pyrimidin-3(2H)-yl]cyclohexyl}-1,5-dimethyl-1H-pyrazole-3-carboxamide]
12.6 pM | Cc1cc(C(=O)N[C@H]2CC[C@@H](n3c(=O)c4cc(F)cnc4n(-c4cccc(-c5ccc(CN(C)CCN(C)C)cc5)c4)c3=O)CC2)nn1C [Example 113, N-{cis-4-[1-(4′-{[[2-(dimethylamino)ethyl](methyl)amino]methyl}biphenyl-3-yl)-6-fluoro-2,4-dioxo-1,4-dihydropyrido[2,3-d]pyrimidin-3(2H)-yl]cyclohexyl}-1,5-dimethyl-1H-pyrazole-3-carboxamide]
7.94 pM | Cc1cc(C(=O)N[C@H]2CC[C@@H](n3c(=O)c4cc(F)cnc4n(-c4cccc(-c5ccc(CN6CCN(C(C)C)CC6)cc5)c4)c3=O)CC2)nn1C [Example 114, N-{cis-4-[6-fluoro-1-{4′-[(4-isopropylpiperazin-1-yl)methyl]biphenyl-3-yl}-2,4-dioxo-1,4-dihydropyrido[2,3-d]pyrimidin-3(2H)-yl]cyclohexyl}-1,5-dimethyl-1H-pyrazole-3-carboxamide]
39.8 pM | Cc1cc(C(=O)N[C@H]2CC[C@@H](n3c(=O)c4cc(F)cnc4n(-c4cccc(-c5ccc(CNCCC(C)C)cc5)c4)c3=O)CC2)nn1C [Example 115, N-{cis-4-[6-fluoro-1-(4′-{[(3-methylbutyl)amino]methyl}biphenyl-3-yl)-2,4-dioxo-1,4-dihydropyrido[2,3-d]-pyrimidin-3(2H)-yl]cyclohexyl}-1,5-dimethyl-1H-pyrazole-3-carboxamide]
50.1 pM | Cc1cc(C(=O)N[C@H]2CC[C@@H](n3c(=O)c4cc(F)cnc4n(-c4cccc(-c5ccc(CN6CCC(CO)CC6)cc5)c4)c3=O)CC2)nn1C [Example 116, N-{cis-4-[6-fluoro-1-(4′-{[4-(hydroxymethyl)piperidin-1-yl]methyl}biphenyl-3-yl)-2,4-dioxo-1,4-dihydropyrido[2,3-d]pyrimidin-3(2H)-yl]cyclohexyl}-1,5-dimethyl-1H-pyrazole-3-carboxamide]
126 pM | COCCNCc1ccc(-c2cccc(-n3c(=O)n([C@H]4CC[C@@H](NC(=O)c5cc(C)n(C)n5)CC4)c(=O)c4cc(F)cnc43)c2)cc1 [Example 117, N-{cis-4-[6-fluoro-1-(4′-{[(2-methoxyethyl)amino]methyl}biphen-yl-3-yl)-2,4-dioxo-1,4-dihydropyrido[2,3-d]pyrimidin-3(2H)-yl]cyclohexyl}-1,5-dimethyl-1H-pyrazole-3-carboxamide]
25.1 pM | Cc1cc(C(=O)N[C@H]2CC[C@@H](n3c(=O)c4cc(F)cnc4n(-c4cccc(-c5ccc(CN6CCC(N7CCCC7)CC6)cc5)c4)c3=O)CC2)nn1C [Example 118, N-{cis-4-[6-fluoro-2,4-dioxo-1-{4′-[(4-pyrrolidin-1-ylpiperidin-1-yl)methyl]biphenyl-3-yl}-1,4-dihydropyrido[2,3-d]pyrimidin-3(2H)-yl]cyclohexyl}-1,5-dimethyl-1H-pyrazole-3-carboxamide]
316 pM | O=C(N[C@H]1CC[C@@H](n2c(=O)c3cc(F)cnc3n(-c3cccc(-c4ccc(CN5CCCCC5)cc4)c3)c2=O)CC1)c1cn2c(n1)CCCC2 [Example 119, N-{cis-4-[6-fluoro-2,4-dioxo-1-[4′-(piperidin-1-ylmethyl)biphenyl-3-yl]-1,4-dihydropyrido[2,3-d]pyrimidin-3(2H)-yl]cyclohexyl}-5,6,7,8-tetrahydroimidazo[1,2-a]pyridine-2-carboxamide]
31.6 pM | O=C(N[C@H]1CC[C@@H](n2c(=O)c3cc(F)cnc3n(-c3cccc(-c4ccc(CN5CCN(CCO)CC5)cc4)c3)c2=O)CC1)c1cn2c(n1)CCCC2 [Example 120, N-{cis-4-[6-fluoro-1-(4′-{[4-(2-hydroxyethyl)piperazin-1-yl]methyl}biphenyl-3-yl)-2,4-dioxo-1,4-dihydropyrido[2,3-d]pyrimidin-3(2H)-yl]cyclohexyl}-5,6,7,8-tetrahydroimidazo[1,2-a]pyridine-2-carboxamide]
158 pM | CC(C)N(CCO)Cc1ccc(-c2cccc(-n3c(=O)n([C@H]4CC[C@@H](NC(=O)c5cn6c(n5)CCCC6)CC4)c(=O)c4cc(F)cnc43)c2)cc1 [Example 121, N-{cis-4-[6-fluoro-1-(4′-{[(2-hydroxyethyl)(isopropyl)amino]methyl}biphenyl-3-yl)-2,4-dioxo-1,4-dihydropyrido[2,3-d]pyrimidin-3(2H)-yl]cyclohexyl}-5,6,7,8-tetrahydroimidazo[1,2-a]pyridine-2-carboxamide]
50.1 pM | CC(C)CCNCc1ccc(-c2cccc(-n3c(=O)n([C@H]4CC[C@@H](NC(=O)c5cn6c(n5)CCCC6)CC4)c(=O)c4cc(F)cnc43)c2)cc1 [Example 122, N-{cis-4-[6-fluoro-1-(4′-{[(3-methylbutyl)amino]methyl}biphenyl-3-yl)-2,4-dioxo-1,4-dihydropyrido[2,3-d]pyrimidin-3(2H)-yl]cyclohexyl}-5,6,7,8-tetrahydroimidazo[1,2-a]pyridine-2-carboxamide]
39.8 pM | CCOCCNCc1ccc(-c2cccc(-n3c(=O)n([C@H]4CC[C@@H](NC(=O)c5cn6c(n5)CCCC6)CC4)c(=O)c4cc(F)cnc43)c2)cc1 [Example 123, N-{cis-4-[1-(4′-{[(2-ethoxyethyl)amino]methyl}biphenyl-3-yl)-6-fluoro-2,4-dioxo-1,4-dihydropyrido[2,3-d]pyrimidin-3(2H)-yl]cyclohexyl}-5,6,7,8-tetrahydroimidazo[1,2-a]pyridine-2-carboxamide]
6.31 pM | CN(C)C1(C(=O)N[C@H]2CC[C@@H](n3c(=O)c4cc(F)cnc4n(-c4cccc(-c5ccc(CN6CCOCC6)cc5)c4)c3=O)CC2)CC1 [Example 124, 1-(dimethylamino)-N-{cis-4-[6-fluoro-1-[4′-(morpholin-4-ylmethyl)biphenyl-3-yl]-2,4-dioxo-1,4-dihydropyrido[2,3-d]pyrimidin-3(2H)-yl]cyclohexyl}cyclopropane-carboxamide]
158 pM | CN(C)C1(C(=O)N[C@H]2CC[C@@H](n3c(=O)c4cc(F)cnc4n(-c4cccc(-c5ccc(CN6CCCCC6)cc5)c4)c3=O)CC2)CC1 [Example 125, 1-(dimethylamino)-N-{cis-4-[6-fluoro-2,4-dioxo-1-[4′-(piperidin-1-ylmethyl)biphenyl-3-yl]-1,4-dihydropyrido[2,3-d]pyrimidin-3(2H)-yl]cyclohexyl}cyclopropane-carboxamide]
63.1 pM | CC(C)N(CCO)Cc1ccc(-c2cccc(-n3c(=O)n([C@H]4CC[C@@H](NC(=O)C5(N(C)C)CC5)CC4)c(=O)c4cc(F)cnc43)c2)cc1 [Example 126, 1-(dimethylamino)-N-{cis-4-[6-fluoro-1-(4′-{[(2-hydroxyethyl)(isopropyl)amino]methyl}biphenyl-3-yl)-2,4-dioxo-1,4-dihydropyrido[2,3-d]pyrimidin-3(2H)-yl]cyclohexyl}cyclopropane-carboxamide]
